Laboratory results from patent publication US5298523A, “Method for treating transplant patients using mycalamide compounds” (priority 1992, dated 1994).

Columns and labels:
[1] = tested on: graft vs. host reaction, CB6F1 mice grafted with BALB/c splenocytes; test: Graft vs. host reaction (Simonsen splenomegaly assay); assay type: in vivo, mouse; conditions: for % Suppression / Number of surviving mice at the end of the experiment / Stim. index: Days 1-7
Experimental: Graft vs. host reaction. In vivo studies with mycalamide A utilized the […]→F1, GVHR model (Simonsen splenomegaly assay). CB6F1 male mice, 4 weeks of age, were injected intraperitoneally with 5×10^7 splenocytes from BALB/c male mice, 8 weeks of age, on day 0 (BALB/c→CB6F1). A syngeneic control group (CB6F1 →CB6F1) was similarly prepared and served as the negative control. For experiment 1, the grafted mice were divided into 5 treatment groups of 5 mice each. Groups were injected intraperitoneally with mycalamide A (dissolved initially in ethanol followed by dilution in sterile phosphate-buffered saline as a vehicle) or vehicle alone on days 1-7. For experiment 2, the grafted mice were divided into 7 treatment groups of 5 mice each and similarly injected intraperitoneally with mycalamide A, an immunosuppressive standard, didemnin B, or vehicle alone on days 1-7. On day 7 all groups were sacrificed, spleens excised, and the mean spleen weight and stimulation index calculated for each group. The stimulation index was calculated as follows: [formula] A spleen index of 1.3 or greater is considered a positive response.
^a CB6F1 mice (5 per group) were grafted with 5 × 10^7
BALB/c splenocytes, intraperitoneally on Day 0. Groups were injected
intraperitoneally with drug or vehicle on Days 1-7. Positive indicates
grafted mice receiving vehicle alone.
^b Number of surviving mice at the end of the experiment.
^c Stimulation index (SI) = (spleen weight of test group/body weight
of test group)/(spleen weight of syngeneic group/body weight of syngeneic
^d Suppression = [(SI of positive control) (SI of test group)]/[(SI
of positive control) (SI of syngeneic group)].
^e Didemnin B immunosuppressive standard.

[2] = tested on: two-way murine mixed lymphocyte response (C57BL/6J and BALB/c splenocytes); test: Two-way murine mixed lymphocyte reaction (MLR), 3H-thymidine incorporation; assay type: cell-based
Experimental: Preparation of splenocyte cell suspensions. […] The resulting supernatant was then transferred to another sterile centrifuge tube, and the cell concentration adjusted to 2×10^6 cells/ml dilution with TCM.
Two way mixed lymphocyte reaction (MLR). The immunosuppressive properties of mycalamide A were evaluated using the two-way MLR, utilizing murine splenocytes and human PBL. For the murine MLR, splenocytes from C57Bl/6J and BALB/c mice were prepared as described above, and a volume of […] of each cell suspension was added together to test and control wells of microtiter plates. Wells containing 0.20 ml of each cell suspension alone served as controls.
Dilutions of the drug to be tested were prepared in absolute EtOH and further diluted to the appropriate concentration in TCM and added directly to the wells containing splenocyte combinations. Additional solvent (EtOH) control wells were also prepared by adding the equivalent percentage of EtOH to each culture well. Plates were incubated at 37° C. in a 5% CO2 humidified atmosphere for 88 hours. Following the incubation, 1.0 μCi of ^3 H-thymidine was added to each well, and the plates were returned to the incubator for 5 hours. The contents of each well were harvested onto glass-fiber filter strips, and the incorporation of ^3 H-thymidine was determined by a liquid scintillation counter. Similar conditions were utilized for MLR cultures using human peripheral blood lymphocytes prepared from unrelated donors as described above, with the exception that the initial incubation and subsequent ^3 H-thymidine pulse times were different (114 hours for initial incubation followed by a 6-hour incubation with ^3 H-thymidine). Plates were harvested in a similar manner, and ^3 H-thymidine incorporation determined as described above.

[3] = Experiment #2, 0.005 mg/kg i.p.

In the case of `C=C1CC(OC)(C(O)C(=O)NC2OCOC3C2OC(CC(O)CO)C(C)(C)C3OC)OC(C)C1C` (stereo not drawn) [Mycalamide A, mycalamide A], the “% Suppression” value ([1]; Experiment #1, 0.01 mg/kg i.p.) is reported as 102%, the “Number of surviving mice at the end of the experiment” value (from here on “Number of surviving mice”) ([1]; Experiment #1, 0.01 mg/kg i.p.) is reported as 5/5 and the Stim. index ([1]; Experiment #1, 0.01 mg/kg i.p.) is reported as 0.99. For the same compound, the “% Suppression” value ([1]; Experiment #1, 0.05 mg/kg i.p.) was 0%, the “Number of surviving mice” value ([1]; Experiment #1, 0.05 mg/kg i.p.) was 0/5 and the “% Suppression” value ([1]; Experiment #1, 0.1 mg/kg i.p.) was 0%. The “Number of surviving mice” value ([1]; Experiment #1, 0.1 mg/kg i.p.) was 0/5, the “% Suppression” value [1, 3] was 0% and the “Number of surviving mice” value [1, 3] was 5/5. The Stim. index [1, 3] was 1.92, the “% Suppression” value ([1]; Experiment #2, 0.01 mg/kg i.p.) was 88% and the “Number of surviving mice” value ([1]; Experiment #2, 0.01 mg/kg i.p.) was 5/5. The Stim. index ([1]; Experiment #2, 0.01 mg/kg i.p.) was 1.06, the “% Suppression” value ([1]; Experiment #2, 0.05 mg/kg i.p.) was 0% and the “Number of surviving mice” value ([1]; Experiment #2, 0.05 mg/kg i.p.) was 0/5. For the same compound, the “% Suppression” value ([1]; Experiment #2, 0.1 mg/kg i.p.) was 0%, the “Number of surviving mice” value ([1]; Experiment #2, 0.1 mg/kg i.p.) was 0/5 and the toxicity in mice ([1]; dosages higher than 0.01 mg/kg i.p., in words) was “toxic”. The “immunosuppression in GVHR” value ([1]; dosages lower than 0.01 mg/kg i.p., in words) was “not immunosuppressive”, the activity at 5 µg/mL ([2]; Mus musculus, Splenocyte, 5.0 × 10^0 μg/ml, read-out: % of Positive Control MLR) was 0% and the activity at 50 µg/mL ([2]; Mus musculus, Splenocyte, 5.0 × 10^1 μg/ml, read-out: % of Positive Control MLR) was 0%. It also gave an activity at 500 µg/mL ([2]; Mus musculus, Splenocyte, 5.0 × 10^2 μg/ml, read-out: % of Positive Control MLR) of 0%, an activity at 0.5 µg/mL ([2]; Mus musculus, Splenocyte, 5.0 × 10^-1 μg/ml, read-out: % of Positive Control MLR) of 0% and an activity at 0.05 µg/mL ([2]; Mus musculus, Splenocyte, 5.0 × 10^-2 μg/ml, read-out: % of Positive Control MLR) of 0%. The activity at 0.005 µg/mL ([2]; Mus musculus, Splenocyte, 5.0 × 10^-3 μg/ml, read-out: % of Positive Control MLR) was 0%, the activity at 0.0005 µg/mL ([2]; Mus musculus, Splenocyte, 5.0 × 10^-4 μg/ml, read-out: % of Positive Control MLR) was 0% and the activity at 50 pg/mL ([2]; Mus musculus, Splenocyte, 5.0 × 10^-5 μg/ml, read-out: % of Positive Control MLR) was 0%. It also gave an activity at 5 pg/mL ([2]; Mus musculus, Splenocyte, 5.0 × 10^-6 μg/ml, read-out: % of Positive Control MLR) of 0%, an activity at 500 fg/mL ([2]; Mus musculus, Splenocyte, 5.0 × 10^-7 μg/ml, read-out: % of Positive Control MLR) of 0% and an activity at 50 fg/mL ([2]; Mus musculus, Splenocyte, 5.0 × 10^-8 μg/ml, read-out: % of Positive Control MLR) of 0%. The activity at 5 fg/mL ([2]; Mus musculus, Splenocyte, 5.0 × 10^-9 μg/ml, read-out: % of Positive Control MLR) was 0%, the activity at 5e-10 µg/mL ([2]; Mus musculus, Splenocyte, 5.0 × 10^-10 μg/ml, read-out: % of Positive Control MLR) was 0% and the activity at 5e-11 µg/mL ([2]; Mus musculus, Splenocyte, 5.0 × 10^-11 μg/ml, read-out: % of Positive Control MLR) was 0%. It also gave an activity at 5e-12 µg/mL ([2]; Mus musculus, Splenocyte, 5.0 × 10^-12 μg/ml, read-out: % of Positive Control MLR) of 0%, an activity at 5e-13 µg/mL ([2]; Mus musculus, Splenocyte, 5.0 × 10^-13 μg/ml, read-out: % of Positive Control MLR) of 0% and an activity at 5e-14 µg/mL ([2]; Mus musculus, Splenocyte, 5.0 × 10^-14 μg/ml, read-out: % of Positive Control MLR) of 0%. It also gave an activity at 5e-15 µg/mL ([2]; Mus musculus, Splenocyte, 5.0 × 10^-15 μg/ml, read-out: % of Positive Control MLR) of 0%, an activity at 5e-16 µg/mL ([2]; Mus musculus, Splenocyte, 5.0 × 10^-16 μg/ml, read-out: % of Positive Control MLR) of 0% and an activity at 5e-17 µg/mL ([2]; Mus musculus, Splenocyte, 5.0 × 10^-17 μg/ml, read-out: % of Positive Control MLR) of 85%. For the same compound, the activity at 5e-18 µg/mL ([2]; Mus musculus, Splenocyte, 5.0 × 10^-18 μg/ml, read-out: % of Positive Control MLR) was 82%, the activity at 5e-19 µg/mL ([2]; Mus musculus, Splenocyte, 5.0 × 10^-19 μg/ml, read-out: % of Positive Control MLR) was 128% and the “range of concentrations that suppressed the MLR” value ([2]; murine) was 5×10^2 to 5×10^-16 μg/ml.
